{"source": "paper PMC11117721", "about": "“A Fast-Binding, Functionally Reversible, COX-2 Radiotracer for CNS PET Imaging” (ACS Central Science, 2024)", "key": {"[1]": {"target": "T1, COX-2 (Mus musculus, UniProt Q05769)", "T1 construct": "from tissue; host or cells: brain of living wild-type mice (Strain C57BL/6J)", "T1 sequence (Q05769 18-604)": "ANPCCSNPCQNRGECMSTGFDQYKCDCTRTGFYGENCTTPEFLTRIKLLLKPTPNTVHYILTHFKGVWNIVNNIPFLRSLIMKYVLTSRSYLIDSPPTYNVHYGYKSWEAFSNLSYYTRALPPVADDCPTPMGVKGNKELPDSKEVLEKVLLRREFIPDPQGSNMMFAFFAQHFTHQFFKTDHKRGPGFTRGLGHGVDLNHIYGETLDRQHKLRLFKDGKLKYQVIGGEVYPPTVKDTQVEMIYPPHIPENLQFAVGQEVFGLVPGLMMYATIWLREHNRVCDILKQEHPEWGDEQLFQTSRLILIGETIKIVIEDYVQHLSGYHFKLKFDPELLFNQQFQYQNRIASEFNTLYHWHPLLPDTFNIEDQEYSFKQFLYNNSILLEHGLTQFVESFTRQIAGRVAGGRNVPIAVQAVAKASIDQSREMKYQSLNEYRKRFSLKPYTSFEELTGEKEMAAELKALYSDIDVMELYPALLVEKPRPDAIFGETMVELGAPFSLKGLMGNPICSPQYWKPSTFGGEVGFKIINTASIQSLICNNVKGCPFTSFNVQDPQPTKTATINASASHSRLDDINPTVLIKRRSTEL", "assay": "PET imaging of wild-type mice (controls)", "type": "in vivo", "details": "WT mice (n = 4)", "description": "(§1) We performed additional validation of [^11C]BRD1158 through in vivo PET imaging of an hCOX-2 transgenic mouse line (Figure 3), which overexpressed human COX-2 primarily in neurons (Strain No. 010703, Jackson Laboratories). […] While we did perform contralateral sham (control virus) injections in the AAV rats to assess potential injection confounds, as COX-2 is part of the injury and inflammation response, it was important to validate in a model naïve to brain insult to mitigate how aspects of the AAV rat experimental design could have misled our interpretations of tracer specific binding.\n(§2) In accordance with Massachusetts General Hospital Institutional Animal Care and Use Committee (IACUC) protocols, Sprague Dawley rats (300-500g, Charles River Laboratories), wildtype mice (Strain C57BL/6J), and human Thy-1-COX-2 transgenic line 303 mice (Strain 010703, Jackson Laboratories) were used in these studies. All animals were housed in a standard animal facility with access to conventional rodent food and water ad libitum and a 12 -hour day/night schedule. All animals were allowed to acclimate before any experime ntal procedures. Only male animals were used for imaging experiments .\n(§3) Animals were induced under anesthesia using 1 -3% isoflurane in a carrier of 1.0 -1.5 L/min oxygen.\n(§4) Maintenance of isoflurane depended on procedure and species, rats 2 -3% and mice 1-2%. Rats undergoing surgeries had higher isoflurane maintenance at 3 -4%. After induction, the animals’ body temperatures were regulated using a support heating pad or fan throughout all experiments.\n(§5) Respiratory rates and body temperature were monitored through all imaging and surgical procedures, generally using a respiratory pad and rectal probe. Injections were made through the lateral tail vein.\n(§6) Rats were cannulated with an IV extension using a 60 in, 0.3 mL volume IV extender (Smith Medical) and a 24 ga x 0.75 in IV catheter (McKesson). Mice were cannulated with Intramedic PE10 tubing (BD […]\n(§7) Group 2 animals then […]"}, "[2]": {"target": "T2, COX-2 (Homo sapiens, UniProt P35354)", "T2 sequence (P35354 18-604)": "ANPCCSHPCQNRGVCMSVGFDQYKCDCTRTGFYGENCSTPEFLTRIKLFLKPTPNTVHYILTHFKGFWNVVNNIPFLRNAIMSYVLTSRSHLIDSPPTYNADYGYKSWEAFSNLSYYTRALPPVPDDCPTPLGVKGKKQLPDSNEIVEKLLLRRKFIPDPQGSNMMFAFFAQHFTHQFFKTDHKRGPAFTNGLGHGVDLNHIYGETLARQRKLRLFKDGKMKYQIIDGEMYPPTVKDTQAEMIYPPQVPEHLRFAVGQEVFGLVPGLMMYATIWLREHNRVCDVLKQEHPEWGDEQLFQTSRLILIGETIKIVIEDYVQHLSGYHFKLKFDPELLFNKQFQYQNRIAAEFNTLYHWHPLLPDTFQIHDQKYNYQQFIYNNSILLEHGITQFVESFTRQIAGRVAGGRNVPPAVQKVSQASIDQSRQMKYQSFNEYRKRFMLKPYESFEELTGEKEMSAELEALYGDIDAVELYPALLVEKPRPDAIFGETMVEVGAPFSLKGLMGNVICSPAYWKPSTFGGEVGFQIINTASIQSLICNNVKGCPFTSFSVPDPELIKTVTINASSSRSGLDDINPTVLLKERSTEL", "assay": "PET imaging of h-Thy1 COX-2 transgenic mice", "type": "in vivo, mouse", "parameters": "FLAG; P2A linker remnant (GFP cassette co-expressed, separated by P2A); host or cells: rat striatal (caudate putamen) neurons transduced in vivo with AAV2, human synapsin promoter", "details": "for SUV Average (9–21 min): h-Thy1 COX-2 mice (n = 5)", "description": "as §1, §2, §3, §4, §5, §6, §7\nreceived one 4µL ICV injection of AAV2-GFP-hCOX2 to the Rcpu and one 4µL ICV injection of AAV2-GFP to the Lcpu, an injection paradigm that successfully led to robust, localized, unilateral COX -2 expression that we could use to compare radiotracers (Figure 2, SI Figure 8). Another rat (animal ID SD2006080) received one 4µL ICV injection of AAV2-GFP-hCOX2 to the Rcpu and no left caudate sham injection (SI\nFigure 9). All surgical procedures were performed aseptically. Once rats were prepared and secured with a stereotaxic device (Stoelting Co, Wood Dale, IL), bregma was located. […]\nA 33 -gauge neuro syringe (Hamilton, Reno, NV) was inserted around DV 3.5 mm for one injection. I njections were given slowly and the needle was kept in for 15 min to allow for adequate perfusion. […]"}}, "data": [{"compound": "[11CH3]S(=O)(=O)c1ccc(-c2cccc(NCc3ccoc3)n2)cc1", "note": "[[^11C]BRD1158]", "values": [{"measurement": "SUV Average (9–21 min)", "setting": "[1]; cerebellum", "result": "0.376 ± 0.02"}, {"measurement": "SUV Average (9–21 min)", "setting": "[1]; cortex", "result": "0.359 ± 0.04"}, {"measurement": "SUV Average (9–21 min)", "setting": "[1]; striatum", "result": "0.385 ± 0.05"}, {"measurement": "SUV Average (9–21 min)", "setting": "[2]; cerebellum", "result": "1.84 ± 0.56"}, {"measurement": "SUV Average (9–21 min)", "setting": "[2]; cortex", "result": "1.68 ± 0.50"}, {"measurement": "SUV Average (9–21 min)", "setting": "[2]; striatum", "result": "1.95 ± 0.55"}, {"measurement": "time to significant signal differentiation from wild-type controls", "setting": "[2]; hCOX-2 transgenic mice", "result": "10 to 20", "unit": "min"}]}]}
